One data set deals with Lipoteichoic acid. Nature of the data set: Displacement of BODIPY-TR-cadaverine from Bacillus subtilis Lipoteichoic acid at 4 times MIC measured for 30 mins by fluorescence based microplate reader assay relative to control.
Data set [1] deals with Escherichia coli. Nature of the data set: Antibacterial activity against Escherichia coli ATCC 25922 assessed as eradication of preformed bacterial biofilm by measuring residual biofilm viability at 25 ug/ml incubated for 24 hrs by crystal violet staining based assay relative to control. The settings on record: dose 25 µg/ml. The class given is functional.
The subject of data set [2] is Pseudomonas aeruginosa. Briefly: Induction of cell death in Pseudomonas aeruginosa ATCC 9027 assessed as residual living cells at 8 times MIC incubated for 2 hrs by SYTO 9/PI staining based fluorescence analysis relative to control. In kind it is functional.
Data set [3] deals with Acinetobacter baumannii. Briefly: Antibacterial activity against Acinetobacter baumannii ATCC 17978 assessed as fold increase in MIC incubated for 24 hrs in presence of 2.5 mM Ca2+ by CLSI based broth dilution method. The class given is functional. (In broth dilution the organism is exposed to a series of concentrations in liquid medium.)
A short description of data set [4]: Cytotoxicity against HEK293 cells assessed as cell viability incubated for 24 hrs by CCK-8 assay. To be noted: human. In kind it is toxicity, cell-based.
In data set [5] the test system is Acinetobacter baumannii. Briefly: Antibacterial activity against Acinetobacter baumannii ATCC 17978 assessed as inhibition of bacterial growth incubated for 24 hrs by CLSI based broth dilution method. The class given is functional.
The test system of data set [6] is Escherichia coli. Briefly: Antibacterial activity against Escherichia coli ATCC 25922 assessed as eradication of preformed bacterial biofilm by measuring residual biofilm viability at 0.78 ug/ml incubated for 24 hrs by crystal violet staining based assay relative to control. In kind it is functional. The settings on record: dose 0.78 µg/ml.
Data set [7] has as its system Escherichia coli. Nature of the data set: Bactericidal activity against Escherichia coli ATCC 25922 assessed as log reduction in viable bacteria at 4 times MIC measured after 2 hrs by time-killing assay. The class given is functional.
A further data set has as its system Lipopolysaccharide (LPS). Briefly: Displacement of BODIPY-TR-cadaverine from Escherichia coli Lipopolysaccharide at 2 times MIC measured for 30 mins by fluorescence based microplate reader assay relative to control.
Data set [8] has as its system Pseudomonas aeruginosa. Briefly: Antibacterial activity against Pseudomonas aeruginosa ATCC 9027 assessed as inhibition of bacterial growth incubated for 24 hrs by CLSI based broth dilution method. In kind it is functional.
In data set [9] the test system is Staphylococcus aureus. Nature of the data set: Antibacterial activity against Staphylococcus aureus ATCC 29213 assessed as inhibition of bacterial growth incubated for 24 hrs by CLSI based broth dilution method. In kind it is functional.
In data set [10] the test system is Staphylococcus aureus. Briefly: Bactericidal activity against Staphylococcus aureus ATCC 29213 assessed as bacterial killing at 8 times MIC measured after 8 hrs by time-killing assay relative to control. The class given is functional.
The subject of data set [11] is Pseudomonas aeruginosa. Nature of the data set: Antibacterial activity against Pseudomonas aeruginosa ATCC 9027 in C57BL/6 mouse model of bacterial keratitis assessed as log reduction in number of viable bacterial colonies in infected cornea at 0.8 mg/ml, TOP administered 4 times a day for 3 consecutive days. In kind it is functional. The settings on record: time 3 day.

A further data set deals with Cell membrane. Nature of the data set: Disruption of membrane integrity in Pseudomonas aeruginosa ATCC 9027 assessed as increase in fluorescence intensity at 1 to 8 times MIC by SYTOX green dye based fluorescence analysis. In kind it is subcellular. The settings on record: DDE = dose-dependent effect.
For data set [12], the system named is Staphylococcus aureus. Nature of the data set: Antibacterial activity against Staphylococcus aureus ATCC 29213 assessed as fold increase in MIC incubated for 24 hrs in presence of 4.5 mM K+ by CLSI based broth dilution method. In kind it is functional.
Data set [13] in a line: Toxicity in C57BL/6 mouse assessed as signs of toxicity in cornea at 0.8 mg/ml, TOP administered 4 times a day for 3 consecutive days. The settings on record: in vivo, topical_or_ocular, 72 h, time 3 day.
For data set [14], the system named is Staphylococcus aureus. Briefly: Antibacterial activity against Staphylococcus aureus ATCC 29213 assessed as eradication of preformed bacterial biofilm by measuring residual biofilm viability at 25 ug/ml incubated for 24 hrs by crystal violet staining based assay relative to control. In kind it is functional. The settings on record: dose 25 µg/ml.
Data set [15] concerns Staphylococcus aureus. Nature of the data set: Antibacterial activity against Staphylococcus aureus ATCC 29213 assessed as fold increase in MIC incubated for 24 hrs in presence of 140 mM Na+ by CLSI based broth dilution method. In kind it is functional.
The subject of data set [16] is Staphylococcus aureus. Briefly: Antibiofilm activity against Staphylococcus aureus ATCC 29213 assessed reduction in biofilm formation at 6.25 ug/ml measured after 24 hrs by crystal violet staining based assay relative to control. The settings on record: dose 6.25 µg/ml. Also noted: scale not given: the % may be the effect or the level left. The class given is functional.

In brackets after ≈: the same amount, converted by molar mass.

A word on the CC50: it is the concentration at which the toxic effect on the cells reaches its halfway point. One may read the MIC as the lowest concentration found to suppress growth. With `C=C[C@@](C)(/C=C/c1ccc(OCCCCN(CCCN(C)C)CCCN(C)C)cc1)CCC=C(C)C`, the Activity with Lipoteichoic acid is 37.2%; in the data set on Escherichia coli [1], 2.38%; in the data set on Pseudomonas aeruginosa [2], 0.3%; in the data set on Escherichia coli [6], 91.55%; with Lipopolysaccharide (LPS), 53.3%; in the data set on Staphylococcus aureus [10] it was “>=99.9%”. The Activity result in the data set on Cell membrane is “Dde”; in data set [13], “Non-Toxic”; in the data set with Staphylococcus aureus [14] it was 11.49%; in the data set on Staphylococcus aureus [16], 98.78%. The “fold change (FC)” value in the data set with Acinetobacter baumannii [3], with Staphylococcus aureus [12] and with Staphylococcus aureus [15] was below 2 each time. In [4], the CC50 at 24 h came to 28.6 µg/mL (≈ 57.5 µM). Moreover, the MIC with Acinetobacter baumannii [5], in the data set with Pseudomonas aeruginosa [8] and with Staphylococcus aureus [9] was 3.12 µg/mL (≈ 6.28 µM) each time. Moreover, the “log(activity)” value is listed as 4.28 in the data set with Escherichia coli [7] and 2.95 in the data set with Pseudomonas aeruginosa [11].

Values taken from ChEMBL document CHEMBL5214900, “Design, Synthesis, and Biological Evaluation of Membrane-Active Bakuchiol Derivatives as Effective Broad-Spectrum Antibacterial Agents” (J Med Chem, 2021).
